Some test systems named below: HCT-15; CCRF-CEM; RPMI-8226; DMS-114; SK-MEL-5; SNB-19; HL-60; 786-0; UO-31; NCI-H460; NCI-H522; Malme-3M; U-251; RXF 393; SF-539; SR; SNB-75; MDA-N; MCF7; BT-549.
Common to all, as to experiment: DTP human tumour cell line panel, 48 h

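Interpolation was linear, between the two tested concentrations surrounding the appropriate level; five concentrations were tested over 48 hours in 96-well plates. GI50 is the concentration that inhibits growth by half.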 The source made the active and inactive calls. Rule as the data show it: active = GI50 up to about 1.1 µM and inactive = higher. Bounds are passed on as bounds.

Consider `CC(C)(C)C1CCP(=O)(c2ccccc2)CC1` (centres undefined), for which the GI50 in the test on HCT-15 is greater than 100 µM; in the test on CCRF-CEM, > 100 µM (inactive); with RPMI-8226, > 100 µM (inactive); in the test with DMS-114, > 100 µM (inactive); in the test with SK-MEL-5, > 100 µM (inactive); with SNB-19, > 100 µM (inactive). Also, the GI50 in the test with HL-60, with 786-0, with UO-31, with NCI-H460, with NCI-H522 and in the test on Malme-3M was > 100 µM (inactive) throughout. The GI50 with U-251, with RXF 393, in the test with SF-539, in the test with SR and in the test with SNB-75 was > 100 µM (inactive) each time.

As to `Cc1ccc(Cl)c(NC(=O)C(=O)C(C(=O)c2ccncc2)C2OC(=O)c3ccccc32)c1` (centres undefined), the GI50 is greater than 100 µM with HCT-15; 0.512 µM (active) in the test on CCRF-CEM; > 100 µM (inactive) in the test with RPMI-8226; > 100 µM (inactive) in the test on DMS-114; > 100 µM (inactive) with SK-MEL-5; > 100 µM (inactive) in the test with HL-60. In addition, the GI50 in the test on 786-0, in the test on UO-31, with NCI-H460, in the test on NCI-H522, with Malme-3M and in the test on U-251 was > 100 µM (inactive) in each case. The GI50 with RXF 393, with SF-539, in the test with SR and with SNB-75 was > 100 µM (inactive) in each case.

With `CC(C(=O)[O-])S(=O)(=O)O.CCc1c2cc(OC)c(OC)cc2cc2c3cc(OC)c(OC)cc3cc[n+]12`, the GI50 was 38.4 µM in the test with HCT-15; 9.89 µM (inactive) in the test with MDA-N; 9.14 µM (inactive) in the test with CCRF-CEM; 25.8 µM (inactive) with RPMI-8226; 7.83 µM (inactive) in the test on DMS-114; 9.89 µM (inactive) in the test with MCF7. Also, the GI50 was 15.3 µM (inactive) in the test on SK-MEL-5; 3.94 µM (inactive) in the test with SNB-19; 20.8 µM (inactive) in the test with HL-60; 36.9 µM (inactive) with 786-0; 53.7 µM (inactive) in the test on UO-31; 3.81 µM (inactive) with BT-549. The GI50 in the test on NCI-H460 was 42.4 µM (inactive); in the test on NCI-H522, 3.09 µM (inactive); in the test on Malme-3M, 8.79 µM (inactive); in the test on U-251 it was 6.27 µM (inactive); in the test with RXF 393 it was 65.2 µM (inactive); in the test with SF-539, 9.77 µM (inactive). Also, the results for the GI50 in the test with SR and with SNB-75 were 13.3 µM (inactive) and 7.94 µM (inactive), respectively.

Take `CCc1ccccc1NC(=O)/C(CC(=O)c1c(C)[n+]([O-])c2ccccc2[n+]1[O-])=N\NS(=O)(=O)c1ccc(C)cc1`: the GI50 with HCT-15 is 33.7 µM; with CCRF-CEM, 16.7 µM (inactive); in the test on RPMI-8226, 12.2 µM (inactive); in the test with DMS-114 it was 12.3 µM (inactive); in the test with SNB-19, > 100 µM (inactive); in the test with HL-60 it was 15.8 µM (inactive). The GI50 with 786-0 is 87.5 µM (inactive); with UO-31, > 100 µM (inactive); in the test on NCI-H460, 25.6 µM (inactive); in the test with NCI-H522, 16.1 µM (inactive); with Malme-3M it was 57.4 µM (inactive); in the test with U-251, 27 µM (inactive). The GI50 in the test on RXF 393 is > 100 µM (inactive); in the test with SF-539, 36.6 µM (inactive); in the test on SR, 16.6 µM (inactive); in the test on SNB-75, > 100 µM (inactive).

For the compound `O/N=C(\c1nc2ccc(Cl)cc2nc1O)C(O)c1ccc(Cl)cc1Cl` (centres undefined), the GI50 was greater than 100 µM in the test with HCT-15; > 100 µM (inactive) in the test with CCRF-CEM; > 100 µM (inactive) in the test on RPMI-8226; > 100 µM (inactive) in the test on DMS-114; > 100 µM (inactive) in the test with SK-MEL-5; > 100 µM (inactive) in the test on SNB-19. Besides, the GI50 in the test on HL-60, in the test with 786-0, in the test with UO-31, in the test with NCI-H460, in the test with NCI-H522 and in the test on Malme-3M was > 100 µM (inactive) throughout. Moreover, the GI50 in the test on U-251, in the test on RXF 393, with SF-539, in the test with SR and with SNB-75 was > 100 µM (inactive) each time.

For `CC(C)[Si](OCC1CC(C[C@H]2CC(C[C@H]3C[C@@H](CO[Si](C(C)C)(C(C)C)C(C)C)OC(C)(C)O3)OC(C)(C)O2)OC(C)(C)O1)(C(C)C)C(C)C` (some centres undefined), the GI50 in the test on CCRF-CEM, in the test on RPMI-8226, with DMS-114, in the test on SK-MEL-5, in the test on SNB-19 and in the test on HL-60 was > 100 µM (inactive) in each case. For the same compound, the GI50 in the test with 786-0, with UO-31, in the test with NCI-H460, in the test with NCI-H522, in the test on Malme-3M and with U-251 was > 100 µM (inactive) in each case. Besides, the GI50 in the test with RXF 393, with SF-539, in the test with SR and in the test on SNB-75 was > 100 µM (inactive) each time.

As for `Cn1c2ccccc2c2ccc3c(c21)C(=O)C=CC3=O`, the GI50 in the test with HCT-15 is 4.56 µM; with MDA-N it was 6.82 µM (inactive); with CCRF-CEM, 0.69 µM (active); in the test on RPMI-8226 it was 2.32 µM (inactive); in the test with DMS-114, 8.26 µM (inactive); in the test with MCF7 it was 3.3 µM (inactive). In addition, the GI50 is 15.2 µM (inactive) in the test on SK-MEL-5; 26.5 µM (inactive) in the test on SNB-19; 0.738 µM (active) with HL-60; 4.27 µM (inactive) with 786-0; 6.93 µM (inactive) in the test with UO-31; 6.98 µM (inactive) in the test with BT-549. For the same compound, the GI50 in the test on NCI-H460 is 16.9 µM (inactive); with NCI-H522, 2.96 µM (inactive); in the test with Malme-3M, 3.39 µM (inactive); with U-251, 11.4 µM (inactive); with RXF 393, 2.47 µM (inactive); with SF-539 it was 11.5 µM (inactive). The GI50 is 0.796 µM (active) with SR and 16.7 µM (inactive) in the test with SNB-75.

As for `COC(=O)N/N=C(/Cc1occc(=O)c1O)C(=O)Nc1ccc([N+](=O)[O-])cc1[N+](=O)[O-]`, the GI50 in the test on HCT-15 is greater than 100 µM; in the test with CCRF-CEM, > 100 µM (inactive); in the test with RPMI-8226, > 100 µM (inactive); in the test on DMS-114, > 100 µM (inactive); with SK-MEL-5, > 100 µM (inactive); with SNB-19 it was > 100 µM (inactive). For the same compound, the GI50 in the test with HL-60, with 786-0, with UO-31, with NCI-H460, with NCI-H522 and in the test on Malme-3M was > 100 µM (inactive) throughout. The GI50 with U-251, in the test on RXF 393, with SF-539, in the test on SR and in the test with SNB-75 was > 100 µM (inactive) each time.

A word on the GI50: it is the concentration giving 50% growth inhibition.

The record behind these values is ChEMBL document CHEMBL1201862, “PubChem BioAssay data set” (2004).
